In patent publication US20050215544A1, “Methods of treating HIV infection” (priority 2004, published 2005):

What was measured:
HIV-1 LAI [1] = assay: microbe, parasite or virus in culture; conditions: Human immunodeficiency virus 1, MT2, 120 h
Protocol: (§1) Virus and cell lines. The T-cell lines, MT-2 and PM-1 were obtained through the AIDS Research and Reference Reagent Program, NIAID, and were contributed by Dr. D. Richman and Dr. R. Gallo, respectively. Both cell lines were cultured in RPMI 1640 medium supplemented with 10% fetal bovine serum, 2 mM L-glutamine and sub-cultured twice a week. The LAI strain of HIV-1 was obtained from the Fred Hutchinson Cancer Research Center, and the Bal strain was from NIH. Both virus stocks were amplified and titered in MT-2 cells (LAI) and PM-1 cells (Bal) using a virus infectivity assay.
(§2) Drug Susceptibility and Cytotoxicity Assays. For drug susceptibility assays, MT-2 cells were infected with HIV-1 LAI (or PM-1 cells with HIV-1 Bal) at an MOI of 0.005, and seeded into 96-well microtiter plates ([…] cells/ml) containing serial dilutions of test compounds. […] Each drug ratio consisted of an array of 3-fold serial dilutions, and was performed in quadruplicate. The plates were incubated at 37° C./5% CO2. The MT-2 cells infected with HIV-1 LAI were incubated for 5 days. On day-five post-infection, 20 μl from each well was harvested and quantitated by a reverse transcriptase (RT) assay, or in samples involving non-nucleoside RT inhibitors, an MTS assay. The PM-1 cells infected with HIV-1 Bal and used for studying the combinations with CCR5 inhibitors were incubated for six days. On day-six post-infection, 20 μl from each well was harvested, 20- and 50-fold diluted and quantitated by p24 assay. Cytotoxicity assays were performed using uninfected cells, exposed to the same drug combinations, and incubated for six days. Cell viability was determined by an MTS assay. The CC50 values were calculated by using the exponential form of the median effect equation as mentioned below for calculation of EC50.
(§3) In this equation, Fa stands for “fraction affected,” and represents the fraction of the viral load that has been inactivated. […] ED50 is drug concentration that is expected to reduce the amount of virus by 50%, and m is a parameter that reflects the slope of the concentration-response curve.
In carrying out the combination experiments below, the EC50 for Compound 1 and each comparator compound was determined during the course of each study, and used in the subsequent data analysis.

HIV-1 LAI [2] = assay: Two-drug combination antiviral assay with Compound 1 (combination indices, Chou and Rideout); assay type: cell-based; conditions: combination with Compound 1; for Combination Indices at 50% HIV Inhibition (Confidence Interval) / Combination Indices at 75% HIV Inhibition (Confidence Interval) / Combination Indices at 90% HIV Inhibition (Confidence Interval): 95% CI in parenthesis; for Overall Result of two-drug combination: all ratios and inhibition levels
Protocol: as §1, §2
Analysis of Drug Combination Effects. For determination of CI values, drugs were diluted in a fixed ratio and multiple ratios were analyzed. The drug serial dilutions spanned a range of concentrations near the EC50 value of each compound, so that equivalent antiviral activities could be compared. Concentration-response curves were estimated for each individual drug and every combination using the median-effect equation. The equation was fit using a nonlinear regression routine (Proc Nlin) in PC SAS version 8.01 (SAS Institute Inc., SAS Version 8.01, Cary, NC: SAS Institute Inc., 1990).
as §3
To assess antiviral effects of different drug combination treatments, combination indices (CIs) were calculated according to Chou and Rideout. The combination index was computed as CI=[D]1/[Dm]1+[D]2/[Dm]2
In this equation [Dm]1 and [Dm]2 are the concentrations of drugs that would individually produce a specific level of effect, while [D]1 and [D]2 are the concentrations of drugs in combination that would produce the same level of effect.
Theoretically, additivity is implied if the CI is equal to one, synergy if the CI is less than one, and antagonism if the CI is greater than one. […] At best, we can construct a range that contains the likely values for the CI, given the noise in the data. In this report, these ranges are reported in parentheses next to each point estimate of the CI. […] If the range fell entirely above 1.0, we would infer antagonistic behavior. If the range were to include 1.0, we would infer additivity.

[3] = EC50 ratio 1:1 (Compound 1 to comparator)
[4] = EC50 ratio 1:2.5 (Compound 1 to comparator)
[5] = EC50 ratio 2.5:1 (Compound 1 to comparator)

Structure (SMILES) | EC50 (HIV-1 LAI [1]) [nM] | Combination Indices at 50% HIV Inhibition (Confidence Interval) (HIV-1 LAI [2]; [3]) | Combination Indices at 75% HIV Inhibition (Confidence Interval) (HIV-1 LAI [2]; [3]) | Combination Indices at 90% HIV Inhibition (Confidence Interval) (HIV-1 LAI [2]; [3]) | Combination Indices at 50% HIV Inhibition (Confidence Interval) (HIV-1 LAI [2]; [4]) | Combination Indices at 75% HIV Inhibition (Confidence Interval) (HIV-1 LAI [2]; [4]) | Combination Indices at 90% HIV Inhibition (Confidence Interval) (HIV-1 LAI [2]; [4]) | Combination Indices at 50% HIV Inhibition (Confidence Interval) (HIV-1 LAI [2]; [5]) | Combination Indices at 75% HIV Inhibition (Confidence Interval) (HIV-1 LAI [2]; [5]) | Combination Indices at 90% HIV Inhibition (Confidence Interval) (HIV-1 LAI [2]; [5]) | Overall Result of two-drug combination (HIV-1 LAI [2]) | Overall Result of two-drug combination (HIV-1 LAI [2]; listed as nevirapine)
Nc1nc(=O)n([C@@H]2CS[C@H](CO)O2)cc1F [Emtricitabine] | 36 | 0.56 (0.49, 0.62) | 0.39 (0.34, 0.45) | 0.28 (0.22, 0.33) | 0.45 (0.38, 0.51) | 0.62 (0.50, 0.74) | 0.86 (0.59, 1.14) | 0.22 (0.20, 0.24) | 0.32 (0.28, 0.37) | 0.48 (0.38, 0.58) | Synergistic | –
Cc1ccnc2c1NC(=O)c1cccnc1N2C1CC1 [Nevirapine] | 127 | 0.13 (0.11, 0.16) | 0.17 (0.13, 0.22) | 0.24 (0.14, 0.33) | 0.32 (0.23, 0.40) | 0.72 (0.45, 0.99) | 1.69 (0.63, 2.75) | 0.37 (0.29, 0.44) | 0.76 (0.54, 0.98) | 1.60 (0.86, 2.34) | Additive- | additive to synergistic
CC(C)(C)NC(=O)[C@@H]1C[C@@H]2CCCC[C@@H]2CN1C[C@@H](O)[C@H](Cc1ccccc1)NC(=O)[C@H](CC(N)=O)NC(=O)c1ccc2ccccc2n1 [Saquinavir] | 4 | 0.50 (0.40, 0.61) | 0.92 (0.64, 1.19) | 1.71 (0.90, 2.51) | 0.24 (0.21, 0.26) | 0.32 (0.27, 0.36) | 0.43 (0.33, 0.52) | 0.14 (0.12, 0.16) | 0.31 (0.25, 0.37) | 0.68 (0.45, 0.92) | Additive- | –

More lines, in order of falling EC50 (HIV-1 LAI [1]), values ahead:

EC50 (HIV-1 LAI [1]) [nM] | Structure (SMILES) | Combination Indices at 50% HIV Inhibition (Confidence Interval) (HIV-1 LAI [2]; [3]) | Combination Indices at 75% HIV Inhibition (Confidence Interval) (HIV-1 LAI [2]; [3]) | Combination Indices at 90% HIV Inhibition (Confidence Interval) (HIV-1 LAI [2]; [3]) | Combination Indices at 50% HIV Inhibition (Confidence Interval) (HIV-1 LAI [2]; [4]) | Combination Indices at 75% HIV Inhibition (Confidence Interval) (HIV-1 LAI [2]; [4]) | Combination Indices at 90% HIV Inhibition (Confidence Interval) (HIV-1 LAI [2]; [4]) | Combination Indices at 50% HIV Inhibition (Confidence Interval) (HIV-1 LAI [2]; [5]) | Combination Indices at 75% HIV Inhibition (Confidence Interval) (HIV-1 LAI [2]; [5]) | Combination Indices at 90% HIV Inhibition (Confidence Interval) (HIV-1 LAI [2]; [5]) | Overall Result of two-drug combination (HIV-1 LAI [2]) | Overall Result of two-drug combination (HIV-1 LAI [2]; listed as nevirapine)
30 | Nc1ccn([C@@H]2CS[C@H](CO)O2)c(=O)n1 [Lamivudine] | 0.57 (0.41, 0.73) | 0.73 (0.44, 1.02) | 1.00 (0.37, 1.62) | 0.17 (0.13, 0.21) | 0.33 (0.23, 0.43) | 0.70 (0.33, 1.06) | 0.18 (0.13, 0.22) | 0.38 (0.26, 0.49) | 0.85 (0.40, 1.29) | – | –
6 | Cc1c(O)cccc1C(=O)N[C@@H](CSc1ccccc1)[C@H](O)CN1C[C@H]2CCCC[C@H]2C[C@H]1C(=O)NC(C)(C)C [Nelfinavir] | 0.38 (6.31, 0.46) | 0.56 (0.47, 0.72) | 0.83 (0.47, 1.18) | 0.56 (0.46, 0.65) | 0.89 (0.68, 1.10) | 1.43 (0.89, 1.97) | 0.17 (0.13, 0.21) | 0.40 (0.29, 0.52) | 0.95 (0.49, 1.42) | Additive- | –
5 | Cc1cccc(C)c1OCC(=O)N[C@@H](Cc1ccccc1)[C@@H](O)C[C@H](Cc1ccccc1)NC(=O)[C@H](C(C)C)N1CCCNC1=O [Lopinavir] | 0.68 (0.49, 0.87) | 0.80 (0.48, 1.11) | 0.95 (0.36, 1.55) | 0.74 (0.57, 0.92) | 0.56 (0.37, 0.74) | 0.42 (0.21, 0.64) | 0.65 (0.44, 0.86) | 0.77 (0.43, 1.11) | 0.92 (0.28, 1.57) | Additive- | –
5 | CC(C)c1nc(CN(C)C(=O)N[C@H](C(=O)N[C@@H](Cc2ccccc2)C[C@H](O)[C@H](Cc2ccccc2)NC(=O)OCc2cncs2)C(C)C)cs1 [Ritonavir] | 0.25 (0.19, 0.31) | 0.38 (0.26, 0.50) | 0.58 (0.28, 0.88) | 0.16 (0.12, 0.20) | 0.25 (0.18, 0.32) | 0.40 (0.19, 0.60) | 0.40 (0.23, 0.57) | 0.66 (0.29, 1.04) | 1.11 (0.05, 2.17) | Additive- | –
1 | CC(C)(C)NC(=O)[C@@H]1CN(Cc2cccnc2)CCN1C[C@@H](O)C[C@@H](Cc1ccccc1)C(=O)N[C@H]1c2ccccc2C[C@H]1O [Indinavir] | 0.73 (0.58, 0.88) | 0.75 (0.54, 0.97) | 0.77 (0.42, 1.12) | 0.42 (0.22, 0.63) | 0.57 (0.20, 0.95) | 0.78 (0.00, 1.64) | 0.56 (0.43, 0.69) | 0.67 (0.45, 0.89) | 0.81 (0.38, 1.23) | Moderate- | –
